In general, Ki refers to a measure of affinity in units of concentration, obtained from inhibition or displacement. A low value points to a stronger hold on the target.

The target of the test is short 8-mer DNA zipper (Z1: ATGTCCAT) target interaction. Nature of the test: nanoswitch-FRET dose response with blocking oligonucleotides. Type of test: binding. Conditions: 1 nM nanoswitches with Z1 target interaction. An excerpt: DNA nanoswitches were created as previously described (Koussa et al. 2015, Hansen et al. 2017). Briefly, circular ssDNA from the 7,249-nt bacteriophage M13 (New England BioLabs) was linearized by enzymatic cleavage of a single site using BtscI (New England BioLabs) and a site-specific oligonucleotide. This ssDNA scaffold was mixed with a molar excess of tiling 60-mer oligonucleotides (10:1), excluding the complementary regions for detection oligonucleotide and target interaction partners, and subjected to a temperature ramp from 90 to 20° C. at 1° C.−min-1. The detection oligonucleotides were added at 55° C. during the hybridization protocol. […]
The FRET from nanoswitches was quantified using a BioTek Neo plate reader. Specifically, the FRET emission was measured at 665 nm from […] and the non-FRET emission at 555 nm from […] using the built in monochromator-based system. The FRET ratio was then calculated as the ratio of the signal at 665 nm over 555 nm. For nanoswitch concentrations 2 nM and above, to reduce background, excitation at 540 nm was used instead and the FRET emission was measured at 680 nm.
FRET was measured in the presence of increasing concentrations of 7-mer (TGGACAT) or 8-mer ([…]) blocking oligonucleotides that bind to one side of the zipper. […]

ATGGACAT [8-mer] registered an inhibitory constant (Ki) (95% CI by bootstrapping (150 nM, 430 nM)) of 0.26 µM.
For TGGACAT [7-mer], under “95% CI by bootstrapping (1.2 μM, 3.8 μM)”, the affinity corresponds to a Ki of 2 µM.
